Converted amounts (≈) assume the structure as drawn.
Key:
[1] = test system: naive T cell transfer model of colitis; test: naive T cell transfer model of colitis (Crohn's disease mouse model), histological scoring of large intestine; assay type: in vivo
Text: From spleen of Balb/c mouse, naive T cell (CD4+CD62L+CD44−) was isolated with antibody-coated magnetic beads. The isolated naive T cell (5×10^5 cells/mouse) was transplanted in abdominal cavity of SCID mouse which is a severe combined immunodeficiency animal. The present compound was orally administered to the mouse once a day at each dose defined in Table 1 below, from the first day of the transplantation for Test 1, or from the 2nd week after the transplantation for Test 2, until 5 weeks after the transplantation. [table] […] The anti-TNF-α antibody was intraperitoneally administered to the mouse twice a week at each dose defined in Table 2 below, from the 2nd week after the transplantation, for 2 weeks. [table] At 5th week for Tests 1 and 2, and at 4th week for Test 3, the large intestine was removed, and the length and weight of the large intestine were measured. In addition, the large intestine was fixed with formalin to carry out pathological analysis. From the removed large intestine, the anus part, the center part, and the cecal part were cut out each in about 0.5 cm, and each part was fixed with formalin. The paraffin block thereof was prepared, sliced, and subjected to H&E staining. The H&E stained slice was examined with a microscope to score it histologically. The histological scoring was carried out by scoring the inflammatory cell infiltrate, the Goblet cell loss, and the hyperplasia of mucosal epithelium, based on the standard (0-4) defined in Table 3 below. [table]

[2] = test system: proliferated T cell; test: T-cell proliferation (CFSE) in stimulated PBMC; assay type: cell-based, human; details: both CD4-positive and CD8-positive T-cell; 2 days
Protocol: Peripheral blood (30 mL) derived from a healthy adult was layered on a lymphocyte tube Leucosep™ containing Lymphoprep (15 mL), and the tube was centrifuged at room temperature at 2000 rpm for 20 minutes. After the centrifugation, the upper 5 mL of the plasma was removed from the peripheral blood mononuclear cell (PBMC) layer with an aspirator, and the left solution containing the PBMC layer was collected into a new 50 mL tube. To the collected solution was added an equal amount of Hanks' balanced salt solution (HBSS) to dilute the cell suspension. The diluted solution was centrifuged at 4° C. at 1800 rpm for 5 minutes. After the centrifugation, the supernatant was discarded, the rest was suspended in 10 mL of AIM-V. The suspension was centrifuged at 4° C. at 1500 rpm for 5 minutes, and the supernatant was discarded. The same washing process was repeated one more time. After the centrifugation, the supernatant was discarded, and the obtained cell was suspended in 5% FBS-containing AIM-V to be used in the following tests. […]

[3] = test system: Streptococcus spp; test: antibacterial activity against intestinal bacteria (MIC); assay type: cell-based
Protocol: (§1) The antibacterial activity of the present compound was examined against Bacteroides spp and Streptococcus spp, which are enterobacteria.
(§2) The antibacterial activity (minimum inhibitory concentration (MIC)) was assayed by agar plate dilution method or broth microdilution method, which is based on Clinical and laboratory standards institute (CLSI). Specifically, the experiment was performed as follows. The compound of the present invention or the control substance was prepared by 2-fold serial dilution, respectively, and test strains were inoculated on the medium suitable for each test strain. After the inoculation followed by incubation at 37° C. under aerobic or anaerobic conditions, the minimum concentration at which colony formation was not observed in agar plate dilution method, or the minimum concentration without turbidity of the culture medium (the bacterial growth was not observed) in broth microdilution method was determined as MIC.

[4] = test system: Bacteroides spp; test: as above; assay type: cell-based
Protocol: as §1, §2

[5] = test system: Fusobacterium spp.; test: antibacterial activity (MIC), agar plate dilution method; assay type: cell-based; details: 17 strains of Fusobacterium spp.; anaerobic, 37° C.
Protocol: There are plural reports about the relationship between intestinal bacteria and inflammatory bowel disease, and it is thought that Fusobacterium spp., one of the intestinal bacteria is a pathogenic bacteria causing inflammatory bowel disease. […] The antibacterial activity (minimum inhibitory concentration (MIC)) was assayed by agar plate dilution method which is based on Clinical and laboratory standards institute (CLSI). The medium used herein was Brucella medium with sheep blood. […] The bacterial suspension was inoculated onto Brucella agar with sheep blood which contains the present compound or any one of the comparative drugs, and incubated at 37° C. under an anaerobic condition.

[6] = test system: Mycobacterium avium subspecies paratuberculosis (MAP); test: antibacterial activity (MIC), broth microdilution method; assay type: cell-based; details: 336 h
Protocol: The chronic enterocolitis of ruminants which is caused by Mycobacterium avium subspecies paratuberculosis (MAP) is similar to Crohn's disease. […] Thus, the antibacterial activity of the present compound against MAP was evaluated. The used comparative drugs for the present compound were rifaximin (RFX), ciprofloxacin (CPFX), metronidazole (MTZ), clarithromycin (CAM), rifabutin (RBT), and clofazimine (CFZ).
The antibacterial activity (minimum inhibitory concentration (MIC)) was assayed by broth microdilution method which is based on Clinical and laboratory standards institute (CLSI).
The 5 strains of MAP were inoculated onto Middlebrook 7H9 agar containing 10% dubos oleic albumin complex (OADC), Tween 80 (0.5 g/L), mycobactin J (2 mg/L), and 1.5% agar, and pre-cultured at 37° C. under an aerobic condition for 14 days. After the pre-culture, the bacterial cell was scraped out from the agar, and prepared to the turbidity of 0.5 Mcfarland standard using Middlebrook 7H9 broth containing 10% dubos oleic albumin complex (OADC), Tween 80 (0.5 g/L), and mycobactin J (2 mg/L)]. The 10-fold diluted solution of the bacterial suspension was inoculated onto Middlebrook 7H9 broth 96-well plate which contains the present compound or any one of the comparative drugs, and incubated at 37° C. under an aerobic condition for 14 days.
After the incubation, the bacterial growth in each well of the 96-well plate was visually checked. The minimum concentration at which the bacterial growth was not observed, compared with the result of the well containing neither present compound nor comparative drug was determined as MIC of the present compound or each comparative drug against each test bacterium.

For `Cc1c(-c2cnc(N)c(C#N)c2)c(F)cc2c(=O)c(C(=O)O)cn(C3CC3)c12` [the present compound, 7-(6-amino-5-cyanopyridin-3-yl)-1-cyclopropyl-6-fluoro-1,4-dihydro-8-methyl-4-oxo-3-quinoline-carboxylic acid], the “histological score (Test 1, preventive effect)” value ([1]; 2.5 mg/kg or more, oral once a day from first day of transplantation until 5 weeks, vs solvent control) was “inhibited the increase of the histological score”, the “histological score (Test 2, therapeutic effect)” value ([1]; 5 mg/kg or more, oral once a day from 2nd week after transplantation until 5 weeks, vs solvent control) was “significantly inhibited the increase of the histological score” and the “histological score (Test 3, comparative study)” value ([1]; from 2nd week after transplantation for 2 weeks, present compound, CPFX, RFX oral once a day 10 mg/kg, antibody 25 mg/kg i.p. twice a week, 4th week) was “potent inhibitory effect at the same level as Normal group”. For the same compound, the “inhibition of T cell proliferation (MFI CFSE)” value [2] was “effect of cell growth inhibition”, the antibacterial activity [3] was “strong antibacterial activities” and the antibacterial activity [4] was “strong antibacterial activities”. For the same compound, the MIC [5] was 0.25 to 1 µg/mL (≈ 0.661 to 2.64 µM) and the MIC [6] was 0.06 to 0.5 µg/mL (≈ 0.159 to 1.32 µM).

Source: US20210317111A1, “NOVEL MEDICAMENT FOR TREATING INFLAMMATORY BOWEL DISEASE” (OTSUKA PHARMACEUTICAL CO., LTD., priority 2018, published 2021)
